Measured values from the SangsterLogP compilation.

Tests used:
[1] = method code SF-AS, from DOI: 10.1016/0048-3575(87)90042-3
[2] = method code SF-GLC, from DOI: 10.1016/0048-3575(87)90042-3

Compound	logP [1]	logP [2]
CCNC(=O)NC(C)=O		-0.01
O=C(NC(=O)c1ccccc1)Nc1ccccc1	3.39	
CNC(N)=O		-1.4
CCNC(=O)NC(=O)c1ccccc1	1.92	
CNC(=O)NC(C)=O		-0.7
Cc1cccc([N+](=O)[O-])c1C(=O)NC(=O)Nc1ccc(Cl)cc1	3.75	

Second part, the compound after the results:

logP [1]	logP [2]	Compound
0.25		NC(=O)c1c(F)cccc1F
0.84		COc1ccccc1C(N)=O
1.6		CC(=O)NC(=O)Nc1ccccc1
0.12		Cc1cccc([N+](=O)[O-])c1C(N)=O
0.83		NC(=O)Nc1ccccc1
4.35		COc1ccccc1C(=O)NC(=O)Nc1ccc(Cl)cc1
1.27		CNC(=O)NC(=O)c1ccccc1
